Experimental data as given in US8586542B2, “Small molecule apoptosis promoters” (Joyant Pharmaceuticals, Inc., priority 2006, dated 2013).

How the values were obtained:
[1] = molecular target: T1, truncated XIAP containing only BIR1, BIR2, and BIR3 domains (Homo sapiens, UniProt P98170); experiment: Fluorescent polarization assay (Bir binding); conditions: competition with 2 nM fluorescein labeled AVPI peptide, room temperature, 1 hour
T1 construct: truncated XIAP containing only BIR1, BIR2, and BIR3 domains
Method: Increasing concentrations of Smac compounds are incubated with 2 nM of labeled peptide (fluorescein labeled 10 mer peptide with AVPI 4 amino acids at its N terminus-Alexa Fluor 488) and truncated XIAP containing only BIR1, BIR2, and BIR3 domains at room temperature for 1 hour. Fluorescence reading, indicative of the bound portion of the labeled peptide, is measured in milipolarization units (mP). The more compound added, less fluorescein labeled peptide bind to the protein due to the competitive binding and less fluorescence signal is released.
Based on this principle, we obtain the Ki value that evaluates compound's binding affinity.

HCC461 cells = experiment: Cell viability assay in HCC461 cells (WST-1); format: cell-based; conditions: HCC461; 48 hrs incubation, WST-1 viability; read-out: HCC461 cell
Method: HCC461 cells plated in 96 well plates at 5×10^4/ml cell density are treated with 50× synthetic Smac mimetic compounds (final concentration range between 30 uM and 0.001 uM). After 48 hrs incubation at 37° C. and 5% CO2, viability of the cells are measured using Cell Proliferation Reagent WST-1 assay kit (Roche Cat #11 644 807 001).
The tetrazolium salts are cleaved to formazan by cellular enzymes. An expansion in the number of viable cells results in an increase in the overall activity of mitochondrial dehydrogenases in the samples. This augmentation in the enzyme activity leads to an increase in the amount of formazan dye formed, which directly correlates to the number of metabolically active cells in the culture. Quantification of the formazan dye produced by metabolically active cells by using a microplate (ELISA) reader at 420-480 nm.

Caspase3 in Hela S100 = experiment: In-vitro caspase-3 activation assay in Hela S100 extract; format: biochemical; conditions: 100 nM compound, Hela S100, 1 mM dATP; slope versus control (compound 1 = Caspase std.)
Method: Caspase3 in most cell extracts can be activated by the addition of 1 mM dATP through the mitochondria caspase pathway. […] Taking advantage of this feature, we use 100 nM of synthetic Smac mimetic compound to test its ability to eliminate IAPB in the Hela S100 and fully induce Caspase3 activity. The In Vitro Caspase3 assay is carried out at 30° C., incubating 100 nM compounds with 30 ug of Hela S100, 1 mM dATP, 10 uM Caspase3 fluorogenic substrate (Caspase3 Substrate II, Fluorogenic, #235425 from Calbiochem). The readout is caspase-3 activity represented by relative fluorogenic unit, which is recorded kinetically. The slope in linear region of the curve for each compound is calculated.
The ratio of each synthetic compound's slope versus the slope of control reflects in vitro caspase-3 activation ability of compounds.

Wap-ras tumors = experiment: In vivo therapy in the WAP-RAS transgenic model; parameters: species or system mice; conditions: mimetic 20 mpk po; Paclitaxel 5 mpk ip
Method: Mimetic and Paclitaxel combination efficacy is also evaluated in the Wap-ras transgenic model.
Mimetics (20 mpk/dosing po) are dissolved in 20% hydroxyl-propyl-betacyclodexatrin (Vehicle I). 0.2 ml of mimetic solution is the oral dosing volume. Paclitaxel (5 mpk/dosing ip) is dissolved in a diluted ethanol/cremophor EL solution (vehicle II) and the i.p. dosing volume for paclitaxel is 0.1 ml.
The mice are weighed, randomized, and ear-marked on Day 0. Mimetic treatment and Vehicle I treatment is begun on Day 1 and continued every 12 hours until Day 21. Paclitaxel and Vehicle II treatments are started on Day 4 and continued daily on Day 5, 6, and 7.

T1 sequence (P98170 1-356 limits assumed): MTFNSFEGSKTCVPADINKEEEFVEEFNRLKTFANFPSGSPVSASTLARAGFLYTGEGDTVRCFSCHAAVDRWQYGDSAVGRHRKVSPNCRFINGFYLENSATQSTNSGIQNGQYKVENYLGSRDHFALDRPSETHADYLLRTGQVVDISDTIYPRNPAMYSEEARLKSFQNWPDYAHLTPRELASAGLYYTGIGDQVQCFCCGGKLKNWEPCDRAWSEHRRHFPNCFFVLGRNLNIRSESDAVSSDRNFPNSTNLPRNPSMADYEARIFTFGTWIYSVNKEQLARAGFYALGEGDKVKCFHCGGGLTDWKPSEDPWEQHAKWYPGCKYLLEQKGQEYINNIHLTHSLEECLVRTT

| Bir binding [1] | IC50 (HCC461 cells) | Caspase % (Caspase3 in Hela S100) | SMILES | tumor response to treatment, single agent (Wap-ras tumors) |
| --- | --- | --- | --- | --- |
| 1.5 µM | 1400 nM | 81% | CN[C@@H](C)C(=O)NC(C(=O)N[C@@H](Cc1cn(C/C=C\Cn2cc(C[C@H](NC(=O)[C@@H](NC(=O)[C@H](C)NC)C(C)(C)C)C(=O)N[C@@H]3CCCc4ccccc43)nn2)nn1)C(=O)N[C@@H]1CCCc2ccccc21)C(C)(C)C.Cl.Cl (stereo partly shown) [Compound 24] | – |
| 0.235 µM | 100 nM | 106% | CN[C@@H](C)C(=O)N[C@@H](CC#Cc1ccc([C@H](NC(=O)[C@H](C)NC)C(=O)N2CCC[C@H]2C(=O)N[C@@H]2CCCc3ccccc32)cc1)C(=O)N1CCC[C@H]1C(=O)N[C@@H]1CCCc2ccccc21.Cl.Cl [Compound 26] | – |
| 0.2 µM | 70 nM | 102% | CN[C@@H](C)C(=O)N[C@@H](CCCc1ccc([C@H](NC(=O)[C@H](C)NC)C(=O)N2CCC[C@H]2C(=O)N[C@@H]2CCCc3ccccc32)cc1)C(=O)N1CCC[C@H]1C(=O)N[C@@H]1CCCc2ccccc21 [Compound 28] | – |
| 0.08 µM | 5 nM | 109% | CN[C@@H](C)C(=O)N[C@H](C(=O)N1CCC[C@H]1C(=O)N[C@@H]1CCCc2ccccc21)c1ccc(C#CCO[C@H](C)[C@H](NC(=O)[C@H](C)NC)C(=O)N2CCC[C@H]2C(=O)N[C@@H]2CCCc3ccccc32)cc1 [Compound 32] | – |
| 0.19 µM | 50 nM | 98% | CN[C@@H](C)C(=O)N[C@@H](Cc1ccc(C#CC[C@H](NC(=O)[C@H](C)NC)C(=O)N2CCC[C@H]2C(=O)N[C@@H]2CCCc3ccccc32)cc1)C(=O)N1CCC[C@H]1C(=O)NC1CCCc2ccccc21.Cl (stereo partly shown) [Compound 36] | – |
| 0.3 µM | 200 nM | 59% | CC[C@H](NC)C(=O)N[C@H](C(=O)N1CCCC1)c1ccc(C#CCO[C@H](C)[C@H](NC(=O)[C@H](C)NC)C(=O)N2CCC[C@H]2C(=O)N[C@@H]2CCCc3ccccc32)cc1.Cl.Cl [Compound 37] | – |
| 0.18 µM | 160 nM | 102% | CC[C@H](NC)C(=O)N[C@H](C(=O)N1CCC[C@H]1C(=O)N[C@@H]1CCCc2ccccc21)c1ccc(C#CCO[C@H](C)[C@H](NC(=O)[C@H](C)NC)C(=O)N2CCC[C@H]2C(=O)N[C@@H]2CCCc3ccccc32)cc1.Cl.Cl [Compound 39] | – |
| 0.15 µM | 30 nM | 85% | CN[C@@H](C)C(=O)N[C@H](C(=O)N1CCCC1)c1ccc(C#CCO[C@H](C)[C@H](NC(=O)[C@H](C)NC)C(=O)N2CCC[C@H]2C(=O)N[C@@H]2CCCc3ccccc32)cc1.Cl.Cl [Compound 40] | – |
| 0.3 µM | 20 nM | 99% | CN[C@@H](C)C(=O)N[C@@H](CCCc1ccc(C[C@H](NC(=O)[C@H](C)NC)C(=O)N2CCC[C@H]2C(=O)N[C@@H]2CCCc3ccccc32)cc1)C(=O)N1CCC[C@H]1C(=O)N[C@@H]1CCCc2ccccc21.Cl.Cl [Compound 41] | – |
| 0.2 µM | 240 nM | 109% | C=C(C#CCO[C@H](C)[C@H](NC(=O)[C@H](C)NC)C(=O)N1CCC[C@H]1C(=O)N[C@@H]1CCCc2ccccc21)CO[C@H](C)[C@H](NC(=O)[C@H](C)NC)C(=O)N1CCC[C@H]1C(=O)N[C@@H]1CCCc2ccccc21.Cl.Cl [Compound 42] | – |
| 0.18 µM | 3 nM | 104% | CN[C@@H](C)C(=O)N[C@@H](Cc1ccc(OC/C=C\COc2ccc(C[C@H](NC(=O)[C@H](C)NC)C(=O)N3CCCC3C(=O)N[C@@H]3CCCc4ccccc43)cc2)cc1)C(=O)N1CCCC1C(=O)N[C@@H]1CCCc2ccccc21.Cl.Cl (stereo partly shown) [Compound 44] | – |
| 0.15 µM | 2 nM | 136% | CN[C@@H](C)C(=O)N[C@@H](Cc1ccc(OCCCCOc2ccc(C[C@H](NC(=O)[C@H](C)NC)C(=O)N3CCCC3C(=O)N[C@@H]3CCCc4ccccc43)cc2)cc1)C(=O)N1CCCC1C(=O)N[C@@H]1CCCc2ccccc21.Cl.Cl (stereo partly shown) [Compound 45] | – |
| 0.19 µM | 20 nM | 99% | CN[C@@H](C)C(=O)N[C@@H](CCCCNC(=O)c1cccc(C(=O)NCCCC[C@H](NC(=O)[C@H](C)NC)C(=O)N2CCC[C@H]2C(=O)N[C@@H]2CCCc3ccccc32)c1)C(=O)N1CCC[C@H]1C(=O)N[C@@H]1CCCc2ccccc21.Cl.Cl [Compound 47] | – |
| 0.2 µM | 56 nM | 103% | CN[C@@H](C)C(=O)N[C@@H](CCCCNC(=O)NCCCC[C@H](NC(=O)[C@H](C)NC)C(=O)N1CCC[C@H]1C(=O)N[C@@H]1CCCc2ccccc21)C(=O)N1CCC[C@H]1C(=O)N[C@@H]1CCCc2ccccc21.Cl.Cl [Compound 48] | – |
| 0.19 µM | 20 nM | 113% | CN[C@@H](C)C(=O)N[C@@H](CCCCNC(=O)c1ccc(C(=O)NCCCC[C@H](NC(=O)[C@H](C)NC)C(=O)N2CCC[C@H]2C(=O)N[C@@H]2CCCc3ccccc32)cc1)C(=O)N1CCC[C@H]1C(=O)N[C@@H]1CCCc2ccccc21.Cl.Cl [Compound 49] | – |
| 0.2 µM | 20 nM | 97% | CN[C@@H](C)C(=O)N[C@@H](CCCCNC(=O)CC(=O)NCCCC[C@H](NC(=O)[C@H](C)NC)C(=O)N1CCC[C@H]1C(=O)N[C@@H]1CCCc2ccccc21)C(=O)N1CCC[C@H]1C(=O)N[C@@H]1CCCc2ccccc21.Cl.Cl [Compound 50] | – |
| – | – | – | CC(=O)O[C@H]1C(=O)[C@@]2(C)[C@H]([C@H](OC(=O)c3ccccc3)[C@]3(O)C[C@H](OC(=O)[C@H](O)[C@@H](NC(=O)c4ccccc4)c4ccccc4)C(C)=C1C3(C)C)[C@]1(OC(C)=O)CO[C@@H]1C[C@@H]2O [Paclitaxel] | do not respond |
